Experimental data as given in ChEMBL document CHEMBL1201862, “PubChem BioAssay data set” (2004).
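Test compounds were applied to cells in 96-well plates for 48 hours at 5 doses. GI50 = concentration required for 50% inhibition of growth.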 Active and inactive are the calls of the source. Cut-off read from the data, not from the text of the source: active = GI50 up to about 1.1 µM and inactive = higher.

Legend:
Assay in all cases: NCI anticancer screen, dose series, 48 h
786-0 = system: 786-0
ACHN = system: ACHN
HCT-15 = system: HCT-15
HL-60 = system: HL-60
IGROV-1 = system: IGROV-1
K562 = system: K562
M19-MEL = system: M19-MEL
MOLT-4 = system: MOLT-4
NCI-H226 = system: NCI-H226
OVCAR-4 = system: OVCAR-4
SF-295 = system: SF-295
SK-MEL-28 = system: SK-MEL-28
SN12C = system: SN12C
UACC-257 = system: UACC-257
BT-549 = system: BT-549
Hs-578T = system: Hs-578T
KM12 = system: KM12
MCF7 = system: MCF7
MDA-N = system: MDA-N
T47D = system: T47D

Structure (SMILES): COC(=O)C12CC(C3CC31)C1CC12 (configuration not stated)
- GI50 (786-0): > 100 µM (inactive)
- GI50 (ACHN): > 100 µM (inactive)
- GI50 (HCT-15): > 100 µM
- GI50 (HL-60): > 100 µM (inactive)
- GI50 (IGROV-1): > 100 µM (inactive)
- GI50 (K562): > 100 µM (inactive)
- GI50 (M19-MEL): > 100 µM (inactive)
- GI50 (MOLT-4): > 100 µM (inactive)
- GI50 (NCI-H226): > 100 µM (inactive)
- GI50 (OVCAR-4): > 100 µM (inactive)
- GI50 (SF-295): > 100 µM (inactive)
- GI50 (SK-MEL-28): > 100 µM (inactive)
- GI50 (SN12C): > 100 µM (inactive)
- GI50 (UACC-257): > 100 µM (inactive)

Structure (SMILES): O=C(CC1C(=O)Nc2ccccc2S1(=O)=O)Nc1cc(Cl)ccc1Cl (configuration not stated)
- GI50 (786-0): 8.55 µM (inactive)
- GI50 (ACHN): 17.2 µM (inactive)
- GI50 (HCT-15): 11.5 µM
- GI50 (HL-60): 11.8 µM (inactive)
- GI50 (IGROV-1): 13.1 µM (inactive)
- GI50 (K562): 13.9 µM (inactive)
- GI50 (M19-MEL): 16.2 µM (inactive)
- GI50 (MOLT-4): 6.01 µM (inactive)
- GI50 (NCI-H226): 14.8 µM (inactive)
- GI50 (OVCAR-4): 16.8 µM (inactive)
- GI50 (SF-295): 17.5 µM (inactive)
- GI50 (SK-MEL-28): 16.6 µM (inactive)
- GI50 (SN12C): 15.6 µM (inactive)
- GI50 (UACC-257): 35.2 µM (inactive)

Structure (SMILES): C=C1C[C@H](O)[C@H](Br)C(C)(C)C12CCC(C)(Cl)C(Br)C2 (some centres not stated)
- GI50 (786-0): 5.48 µM (inactive)
- GI50 (ACHN): 5.05 µM (inactive)
- GI50 (BT-549): 7.53 µM (inactive)
- GI50 (HCT-15): 7.45 µM
- GI50 (HL-60): 0.508 µM (active)
- GI50 (Hs-578T): 5.2 µM (inactive)
- GI50 (IGROV-1): 4.38 µM (inactive)
- GI50 (K562): 2.44 µM (inactive)
- GI50 (KM12): 1.48 µM (inactive)
- GI50 (MCF7): 3.25 µM (inactive)
- GI50 (MDA-N): 1.39 µM (inactive)
- GI50 (MOLT-4): 0.451 µM (active)
- GI50 (NCI-H226): 2.27 µM (inactive)
- GI50 (OVCAR-4): 0.635 µM (active)
- GI50 (SF-295): 1.19 µM (inactive)
- GI50 (SK-MEL-28): 7.74 µM (inactive)
- GI50 (SN12C): 4.37 µM (inactive)
- GI50 (T47D): 0.746 µM (active)
- GI50 (UACC-257): 0.526 µM (active)

Structure (SMILES): O=c1n(-c2ccccc2)c(=O)n2n1C1C=CC2C2C(C1)C2(Cl)Cl (configuration not stated)
- GI50 (786-0): > 100 µM (inactive)
- GI50 (ACHN): > 100 µM (inactive)
- GI50 (HCT-15): > 100 µM
- GI50 (HL-60): > 100 µM (inactive)
- GI50 (IGROV-1): > 100 µM (inactive)
- GI50 (K562): > 100 µM (inactive)
- GI50 (KM12): > 100 µM (inactive)
- GI50 (M19-MEL): > 100 µM (inactive)
- GI50 (MOLT-4): > 100 µM (inactive)
- GI50 (NCI-H226): > 100 µM (inactive)
- GI50 (OVCAR-4): > 100 µM (inactive)
- GI50 (SF-295): > 100 µM (inactive)
- GI50 (SN12C): > 100 µM (inactive)
- GI50 (UACC-257): > 100 µM (inactive)

Structure (SMILES): CC(CO)(CO)/N=C/c1cc(I)cc(I)c1O
- GI50 (786-0): 13.6 µM (inactive)
- GI50 (ACHN): 25 µM (inactive)
- GI50 (BT-549): 14 µM (inactive)
- GI50 (HCT-15): 9.33 µM
- GI50 (HL-60): 11.2 µM (inactive)
- GI50 (Hs-578T): 23.6 µM (inactive)
- GI50 (IGROV-1): 9.4 µM (inactive)
- GI50 (K562): 27.1 µM (inactive)
- GI50 (KM12): 14.5 µM (inactive)
- GI50 (MCF7): 19.5 µM (inactive)
- GI50 (MDA-N): 19.7 µM (inactive)
- GI50 (MOLT-4): 11.5 µM (inactive)
- GI50 (NCI-H226): 16.4 µM (inactive)
- GI50 (OVCAR-4): 8.65 µM (inactive)
- GI50 (SF-295): 15.8 µM (inactive)
- GI50 (SK-MEL-28): 16.6 µM (inactive)
- GI50 (SN12C): 13.3 µM (inactive)
- GI50 (T47D): 23.1 µM (inactive)
- GI50 (UACC-257): 20.9 µM (inactive)

Structure (SMILES): CC(C)(C)c1cc(C(O)(C(F)(F)F)C(F)(F)F)c2c(c1)C(C(F)(F)F)(C(F)(F)F)OC(C)(C(C)(C)C)N2 (configuration not stated)
- GI50 (786-0): 3.34 µM (inactive)
- GI50 (ACHN): 3.06 µM (inactive)
- GI50 (HCT-15): 3.83 µM
- GI50 (IGROV-1): 4.78 µM (inactive)
- GI50 (K562): 2.9 µM (inactive)
- GI50 (KM12): 3.94 µM (inactive)
- GI50 (M19-MEL): 3.05 µM (inactive)
- GI50 (MOLT-4): 2.54 µM (inactive)
- GI50 (NCI-H226): 2.27 µM (inactive)
- GI50 (OVCAR-4): 4.62 µM (inactive)
- GI50 (SF-295): 4.73 µM (inactive)
- GI50 (SK-MEL-28): 8.28 µM (inactive)
- GI50 (SN12C): 4.45 µM (inactive)
- GI50 (UACC-257): 5.19 µM (inactive)

Structure (SMILES): NC1=NN(c2ccccc2)C2(c3ccncc3C(=O)O)C1C(N)=NN2c1ccccc1 (configuration not stated)
- GI50 (786-0): > 100 µM (inactive)
- GI50 (ACHN): > 100 µM (inactive)
- GI50 (BT-549): > 100 µM (inactive)
- GI50 (HCT-15): > 100 µM
- GI50 (HL-60): > 100 µM (inactive)
- GI50 (Hs-578T): > 100 µM (inactive)
- GI50 (IGROV-1): > 100 µM (inactive)
- GI50 (K562): > 100 µM (inactive)
- GI50 (KM12): > 100 µM (inactive)
- GI50 (MCF7): > 100 µM (inactive)
- GI50 (MDA-N): > 100 µM (inactive)
- GI50 (MOLT-4): > 100 µM (inactive)
- GI50 (NCI-H226): > 100 µM (inactive)
- GI50 (OVCAR-4): > 100 µM (inactive)
- GI50 (SF-295): > 100 µM (inactive)
- GI50 (SK-MEL-28): > 100 µM (inactive)
- GI50 (SN12C): > 100 µM (inactive)
- GI50 (T47D): > 100 µM (inactive)
- GI50 (UACC-257): > 100 µM (inactive)

Structure (SMILES): CN1C(=O)CC2(C)c3cc(O)cc(Br)c3N(C)C12 (configuration not stated)
- GI50 (786-0): > 100 µM (inactive)
- GI50 (ACHN): > 100 µM (inactive)
- GI50 (HCT-15): > 100 µM
- GI50 (IGROV-1): > 100 µM (inactive)
- GI50 (K562): > 100 µM (inactive)
- GI50 (KM12): > 100 µM (inactive)
- GI50 (M19-MEL): > 100 µM (inactive)
- GI50 (MOLT-4): > 100 µM (inactive)
- GI50 (NCI-H226): > 100 µM (inactive)
- GI50 (OVCAR-4): > 10 µM (inactive)
- GI50 (SF-295): > 100 µM (inactive)
- GI50 (SK-MEL-28): > 100 µM (inactive)
- GI50 (SN12C): > 100 µM (inactive)
- GI50 (UACC-257): > 100 µM (inactive)
